Eleven compounds from patent US6084097A, “Methods for preparing 1-[4-arylpiperazin-1-yl]-3-[2-oxopyrrolidin/piperidin-1-yl] propanes” (Council of Scientific & Industrial Research, priority 1997, dated 2000) can be followed below.

Broadly, the inhibition in vivo is how much of the control response was suppressed. The low end stands for a weak effect, the high end for a strong effect.

The subject of one experiment is anaesthetized cat. Description: Effect on blood pressure, heart rate and adrenaline vasopressure response at anaesthetized cat. Format: in vivo. On the procedure:
Effect on blood pressure, heart rate and adrenaline
(§1) (a) Cats (2.6-4.0 kg) of either sex anaesthetized with pentobarbitone sodium (40 mg/kg i.v.) and showing basal mean arterial blood pressure below 150 mm (Hg) were categorised as normotensive and above 150 mm Hg as hypertensive. Arterial blood pressure (EP) was recorded from one of the carotid artery through a stathum P23 DC pressure transducer and 7P1 low level DC preamplifier on a Grass Model P7 Polygraph, Signals from 7P1 preamplifier were used to trigger 7P4 Tachograph preamplifier for recording the heart rate (HR). Right femoral vein and Trachea were cannulated for intravenous injections and artificial ventilation respectively. Control responses to intravenous injection of noradrenaline (2-4 ug); acetyl choline (1-2 ug); histamine (1-2 ug) and isoprenaline (1-2 ug) were taken before and after the administration of test doses of each compounds.

The test system of another experiment is perfused rat heart. Description: Langendorffs perfused rat heart preparation, chronotropic effect.
A further experiment deals with Isolated aortic strip. Kind of experiment: Isolated aortic strip, endothelin induced contraction.
For another experiment, the system named is Normotensive cat. Kind of experiment: Effect on blood pressure, heart rate and adrenaline vasopressor response, normotensive cat. The class given is in vivo. Particulars: n = 4. On the procedure: (§2) 2. Effect on blood pressure, heart rate and adrenaline vasopressor response of anaesthetized (pentobarbitone sodium 40 & 60 mg/kg i.p. in cat and rat respectively) normotensive & hypertensive rat & cat model preparations.
as §1

For experiment [1], the system named is Naturally occurring hypertensive cat. Kind of experiment: Effect on blood pressure, heart rate and adrenaline vasopressor response, naturally occurring hypertensive cat. Format: in vivo. Conditions: n = 4. On the procedure:
as §2, §1

Experiment [2] relates to Hypertensive rat model preparation. Kind of experiment: Effect on blood pressure, heart rate and adrenaline vasopressor response, hypertensive rat model preparation. The class given is in vivo. Here is the method: as §2
A short description of another experiment: Site of action: ICV. Format: in vivo. Particulars: dose 0.34-1.36.
In experiment [3] the test system is Langendorff perfused rat heart. Kind of experiment: Cardioprotective activity, Langendorff perfused rat heart, prolong period of ischemic insult. Here is the method: Further, in Langendorff perfused rat heart preparation subjected to even up to 90 mm. global ischemia, the compound at 0.001 ug/ml conc.
The rats were killed by decaptitation, heart were rapidly excised and placed in ice-cold HEPES tyrode buffer. Then isolated hearts were perfused retrogradely through coronary arteries using the Langendorff technique. The perfusion buffer consisted (in mM) NaCl 137, KCl 5.4, CaCl2 1.8, MgCl2 1.0, glucose 11.2 and HEPES 3.0. The buffer (pH 7.4) was continuously gassed with oxygen and maintained at 37° C. Coronary flow rate was maintained at 10 ml/min. The heart contracted spontaneously.
The perfused heart was allowed to equillibrate for 30 min. before initiation of any insult protocol. The test compounds were given at the time of reperfusion. Some of the compounds were dissolved in ethanol. Final concentration of ethanol in the perfusion buffer was 0.0001% and had no effect of its own on the parameter used.
(b) For prolong period of ischemic insult (Becker, L. C. & Ambrosio, G. Myocardial consenquences of reperfusion. Prog. Cardiovas. Dis., 30, 23-44, 1987). Ischemia was initiated by stopping the flow for 30 min. followed by 30 min. reperfusion.

Experiment [4] concerns Isolated Guinea pig ileum. Kind of experiment: Isolated Guinea pig ileum preparation. Particulars: in vitro.
The next experiment deals with cat. Description: Drug antagonism studies at 2 uMol dose i.v. in cat. Particulars: 2 uMol i.v. Format: in vivo. An excerpt: (B) In viva Drug antagonism studies at 2 uMol dose i.v. in cat: […]
The subject of a further experiment is Rat aortic ring. Description: Rat aortic ring preparation, NE induced contraction. Particulars: in vitro.
For experiment [5], the system named is Normotensive rat model preparation. Kind of experiment: Effect on blood pressure, heart rate and adrenaline vasopressor response, normotensive rat model preparation. The class given is in vivo. Particulars: n = 2. On the procedure: as §2
Where [6] appears, read: Felis catus, iv, 2.0 umol/kg i.v.
Where [7] appears, read: Felis catus, iv, 10.0 umol/kg i.v.
Setting [8] is: 0.001 ug/ml at the time of reperfusion, up to 90 mm. global ischemia.
[9] abbreviates: Felis catus, iv, 10.0 umol/kg i.v., read-out: B.P. fall %.

For `O=C1CCCCN1CCCN1CCN(c2ccc(Cl)cc2)CC1` [C6 H4-4-Cl, n=2, 1-[4-(4-chlorophenyl)piperazin-1-yl]-3-[2-oxopiperidin-1-yl]propane], the inhibition in vivo at 2 µmol/kg with anaesthetized cat (setting [6]) came to 20%. In the experiment on anaesthetized cat (setting [7]), the inhibition in vivo at 10 µmol/kg is 25%.

As for `O=C1CCCN1CCCN1CCN(c2ccc(F)cc2)CC1` [C6 H4-4-F, n=1, 1-[4-(4-fluorophenyl)piperazin-1-yl]-3-[2-oxopyrrolidin-1-yl]propane], the “Negative chronotropic effect, duration” value in the experiment with perfused rat heart (1 ug) stood at 10 min; in the experiment on perfused rat heart (3 ug (higher doses 3-5 ug)), 14 min; in the experiment with perfused rat heart (5 ug (higher doses 3-5 ug)), 5 min. Also, in the experiment with perfused rat heart (Rattus norvegicus, 1 ug, read-out: Negative chronotropic effect), the inhibition at 0.001 mg turned out to be 30%. Moreover, the inhibition at 0.003 mg in the experiment with perfused rat heart (Rattus norvegicus, 3 ug (higher doses 3-5 ug), read-out: Negative chronotropic effect) amounted to 26%. Besides, in the experiment with perfused rat heart (Rattus norvegicus, 5 ug (higher doses 3-5 ug), read-out: Negative chronotropic effect), the inhibition at 0.005 mg stood at 5%. The “Endothelin response after washing the preparation” value in the experiment on Isolated aortic strip (after washing the preparation) is listed as “relaxation rather than contraction”. Also, in the experiment with Isolated aortic strip (in vitro), the Endothelin induced contraction result is listed as “inhibited significantly”. Further, the “Adrenaline vasopressure response % inhibition” value was 26% with Normotensive cat (10 uMol/kg i.d.); 49% in experiment [1] (10 uMol/kg i.d.); 33% in [2] (5 uMol/kg i.d., n = 3); 23% in experiment [2] (10 uMol/kg i.d., n = 5); 54% in experiment [2] (20 uMol/kg i.d., n = 1); “+7%” in experiment [5] (2 uMol/kg i.v.). Further, the “Adrenaline vasopressure response % inhibition” value in experiment [5] (10 uMol/kg i.v.) is given as “+14%”; in [5] (20 uMol/kg i.v.) it was -9.5%. Also, the “B.P. Fall duration” value is 85 min in the experiment with Normotensive cat (10 uMol/kg i.d.); over 102.5 min with Normotensive cat (20 uMol/kg i.d.); 110 min in experiment [1] (10 uMol/kg i.d.); over 156.75 min in [1] (20 uMol/kg i.d.); 51 min in experiment [2] (5 uMol/kg i.d., n = 3); 76 min in experiment [2] (10 uMol/kg i.d., n = 5). Moreover, in experiment [2] (20 uMol/kg i.d., n = 1), the “B.P. Fall duration” value was found to be 100 min. The “Adrenaline vasopressure response, R (Reversal)” value in experiment [1] (20 uMol/kg i.d.) was found to be 26%. Moreover, in “Site of action: ICV”, the “B.P. fall Dur.” value fell in the range of 10 to 15 min. For the same compound, the “Incidence of reperfusion induced arrhythmia” value in [3] (setting [8]) is recorded as “abolished”. The “Revival of normal rhythmic contraction, start” value in experiment [3] (setting [8]) is at most 2 mm. The “Cardioprotective effect against myocardial stunning, dose” value in [3] (compared with antihypertensive dose) is reported as “much smaller dose than antihypertensive dose”. In addition, in experiment [4], the Endothelin response entry is “relaxation rather than contraction”. Besides, the “Reduction of antihypertensive effect by pretreatment” value in the experiment with cat (Dup-753 (angiotension II-receptor antagonist) pretreatment) is recorded as 33%; with cat (captopril (ACE inhibitor) pretreatment), 33%; with cat (prazosin (alpha1-adrenergic receptor blocker) pretreatment, significantly), 90%; in the experiment with cat (verapamil (Ca++ channel blocker) pretreatment, significantly), 50%. Further, the “Antihypertensive effect after pretreatment” value with cat (atropine sulphate pretreatment), with cat (mepyramine maleate pretreatment), with cat (propranolol pretreatment) and with cat (yohimbine pretreatment) was “failed to alter” throughout. Further, the “Fall in blood pressure after pretreatment” value with cat (glibenclamide (KATP blocker) pretreatment) was “only partially reduced”. Further, the NE induced contraction entry in the experiment with Rat aortic ring is reported as “inhibited”. For the same compound, the “Adrenaline vasopressure response (R/Pt)” value in the experiment with anaesthetized cat (10.0 umol/kg i.v.) is given as “R”. Further, the inhibition in vivo at 2 µmol/kg with anaesthetized cat (setting [6]) amounted to 9%.

Take `O=C1CCCN1CCCN1CCN(c2ccccn2)CC1` [2-Pyridyl, n=1]: the “Adrenaline vasopressure response (R/Pt)” value in the experiment on anaesthetized cat (10.0 umol/kg i.v.) is on record as “Pt (potentiation (was within 20%))”. Also, the Blood pressure fall % at 2 µmol/kg with anaesthetized cat (Felis catus, iv, 2.0 umol/kg i.v., read-out: B.P. fall %) is 22%. For the same compound, the Blood pressure fall % at 10 µmol/kg in the experiment on anaesthetized cat (setting [9]) is 40%.

For the compound `CCc1ccccc1N1CCN(CCCN2CCCC2=O)CC1` [C6 H4-2-C2 H5, n=1, 1-[4-(2-ethylphenyl)piperazin-1-Yl]-3-[2-oxopyrrolidin-1-yl]propane], the “Adrenaline vasopressure response (R/Pt)” value with anaesthetized cat (2.0 umol/kg i.v.) is on record as “Pt (potentiation (was within 20%))”.

Regarding `O=C1CCCN1CCCN1CCN(c2cccc(F)c2)CC1` [C6 H4-3-F, n=1, 1-[4-(3-fluorophenyl)piperazin-1-yl)-3-[2-oxopyrrolidin-1-yl]propane], the “Adrenaline vasopressure response (R/Pt)” value in the experiment on anaesthetized cat (10.0 umol/kg i.v.) is given as “R”. In addition, the inhibition in vivo at 2 µmol/kg in the experiment on anaesthetized cat (setting [6]) came out at 80%.

In the case of `O=C1CCCCN1CCCN1CCN(c2ccccn2)CC1` [2-Pyridyl, n=2, 1-[4-(2-pyridyl)piperazin-1-yl]-3-[2-oxopiperidin-1-yl]propane], in the experiment with anaesthetized cat (10.0 umol/kg i.v.), the “Adrenaline vasopressure response (R/Pt)” value is on record as “Pt (potentiation (was within 20%))”. The inhibition in vivo at 2 µmol/kg in the experiment with anaesthetized cat (setting [6]) is 28%.

For the compound `O=C1CCCCN1CCCN1CCN(c2cccc(Cl)c2)CC1` [C6 H4-3-Cl, n=2, 1-[4-(3-chlorophenyl)piperazin-1-yl]-3-[2-oxopiperidin-1-yl]propane], the inhibition in vivo at 2 µmol/kg with anaesthetized cat (setting [6]) came to 33%. This compound also displayed an inhibition in vivo at 10 µmol/kg with anaesthetized cat (setting [7]) of 10%.

Turning to `O=C1CCCCN1CCCN1CCN(c2ccc(F)cc2)CC1` [C6 H4-4-F, n=2, 1-[4-(4-fluorophenyl)piperazin-1-yl]-3-[2-oxopiperidin-1-yl]propane], the “Adrenaline vasopressure response (R/Pt)” value with anaesthetized cat (10.0 umol/kg i.v.) is on record as “R”. The compound further had an inhibition in vivo at 2 µmol/kg in the experiment on anaesthetized cat (setting [6]) of 46%.

`O=C1CCCCN1CCCN1CCN(c2cccc(C(F)(F)F)c2)CC1` [C6 H4-3-CF3, n=2, 1-[4-(3-trifluoromethylphenyl)piperazin-1-yl]-3-[2-oxopiperidin-1-yl]propane]: the “Adrenaline vasopressure response (R/Pt)” value with anaesthetized cat (2.0 umol/kg i.v.) is reported as “Pt (potentiation (was within 20%))”. For the same compound, in the experiment on anaesthetized cat (10.0 umol/kg i.v.), the Dur. entry is listed as “Tr”. The compound further returned an inhibition in vivo at 10 µmol/kg in the experiment with anaesthetized cat (setting [7]) of 25%.

For the compound `O=C1CCCN1CCCN1CCN(c2cccc(Cl)c2)CC1` [C6 H4-3-Cl, n=1, 1-[4-(3-chlorophenyl)piperazin-1-yl]-3-[2-oxopyrrolidin-1-yl]propane], in the experiment on anaesthetized cat (2.0 umol/kg i.v.), the “Adrenaline vasopressure response (R/Pt)” value is recorded as “Pt-”.

Consider `COc1ccccc1N1CCN(CCCN2CCCC2=O)CC1` [C6 H4-2-OCH3, n=1], for which the B.P. fall % in the experiment on anaesthetized cat (2.0 umol/kg i.v.) is recorded as 19%. The “Adrenaline vasopressure response (R/Pt)” value in the experiment with anaesthetized cat (10.0 umol/kg i.v.) is “R”. The Blood pressure fall % at 10 µmol/kg in the experiment with anaesthetized cat (setting [9]) came out at 23%.
